Measurements: the NIST ThermoML archive (doi:10.1021/je0340809)

Experiment: xn = mol fraction of the nth substance listed
Settings: 101.3 kPa, Liquid

C=CN1CCCC1=O [N-vinylpyrrolidone] + O
Settings | mass density, 298.15 K [kg/m3] | mass density, 308.15 K [kg/m3] | mass density, 318.15 K [kg/m3] | speed of sound, 298.15 K [m/s] | speed of sound, 308.15 K [m/s] | speed of sound, 318.15 K [m/s] | viscosity, 298.15 K [mPa·s] | viscosity, 308.15 K [mPa·s] | viscosity, 318.15 K [mPa·s]
x2 = 0.0557 | 1042.3 | 1033.43 | 1024.6 | 1533.7 | 1502.5 | 1470.5 | 4.243 | 2.907 | 2.552
x2 = 0.1591 | 1043.33 | 1034.36 | 1025.41 | 1548.1 | 1514.3 | 1480.4 | – | 2.809 | 2.454
x2 = 0.2543 | 1044.19 | 1035.14 | 1026.11 | 1563.3 | 1526.7 | 1490.9 | 3.875 | 2.718 | 2.362
x2 = 0.3503 | 1044.83 | 1035.73 | 1026.63 | 1580.9 | 1541.2 | 1503.3 | 3.75 | 2.667 | 2.305
x2 = 0.4525 | 1045.46 | 1036.33 | 1027.16 | 1598.7 | 1556.2 | 1516.6 | 3.717 | 2.694 | 2.31
x2 = 0.5028 | 1045.82 | 1036.61 | 1027.46 | 1609.9 | 1565.6 | 1524.9 | 3.742 | 2.742 | 2.34
x2 = 0.5539 | 1046.19 | 1037.01 | 1027.78 | 1618.5 | 1573.3 | 1532.1 | 3.792 | 2.807 | 2.385
x2 = 0.6546 | 1046.56 | 1037.41 | 1028.14 | 1635.8 | 1589.3 | 1547.7 | 3.91 | 2.954 | 2.488
x2 = 0.7505 | 1045.06 | 1036.16 | 1027.08 | 1649.2 | 1603.4 | 1563.3 | 3.904 | 3.001 | 2.509
x2 = 0.8519 | 1037.72 | 1029.8 | 1021.56 | 1648.2 | 1609.5 | 1576 | 3.466 | 2.703 | –
x2 = 0.8751 | 1034.5 | 1026.99 | – | 1646.7 | 1610.5 | – | 3.255 | 2.545 | –
x2 = 0.8852 | 1032.84 | 1025.54 | – | 1644.4 | 1609.8 | – | 3.145 | 2.463 | –
x2 = 0.9001 | 1030.08 | 1023.12 | – | 1640 | 1608.2 | – | 2.962 | 2.324 | –
x2 = 0.9251 | 1024.45 | 1018.18 | – | 1623.7 | 1599.1 | – | 2.591 | 2.04 | –
x2 = 0.9357 | 1021.63 | 1015.71 | – | 1613.8 | 1593.2 | – | 2.408 | 1.9 | –
x2 = 0.9554 | 1015.6 | 1010.4 | – | 1589.5 | 1578.2 | – | 2.021 | 1.6 | –
x2 = 0.9649 | 1012.26 | 1007.47 | – | 1574.7 | 1568.8 | – | – | 1.437 | –
x2 = 0.9749 | 1008.43 | 1004.09 | – | 1556.5 | 1557.1 | – | 1.573 | 1.252 | –
x2 = 0.9903 | 1001.77 | 998.206 | – | 1523.1 | 1535.4 | – | 1.169 | 0.932 | –
